This data set can be described thus: Solubility. Format: physicochemical.

This note sets out measurements from US6359006B2, “Amphiphilic fluorine derivatives with telomeric structures; preparation procedure and biomedical applications” (Alliance Pharmaceutical Corp., priority 1990, dated 2002).

Take `O=C(CCSCCC(F)(F)C(F)(F)C(F)(F)C(F)(F)C(F)(F)C(F)(F)F)NC(CO)(CO)CO` [monoadduct 14, N-[(trihydrozymethyl)methyl]4-thia-6-(n-perfluorohezyl) hexanamide]: the “solubility in organic solvents (in words)” value (organic solvents such as AcOEt, CH3CN, CH3OH, CHCl3) was “soluble in organic solvents”. For the same molecule, the “solubility in water (in words)” value (water) is “insoluble in water”.
